Data on six compounds can be found in patent publication EP2242752B1, “[…] IMIDAZOLES AS HEPATITIS C VIRUS INHIBITORS” (Bristol-Myers Squibb Company, priority 2008, dated 2009).

The subject of this test is HCV 1b genotype. Briefly: HCV Replicon assay (HCV 16-377-neo replicon cells). In kind it is cell-based. The conditions noted are these: Hepatitis C virus; HCV 1b genotype replicon cells; read-out: EC50 ranges against HCV 1b. The essentials: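 Inhibition measured in HCV 16-377-neo replicon cells, alongside replicon cells carrying the NS5A Y2065H resistance mutation.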
For orientation: A replicon is a self-replicating genome or part of one, used to study replication in cells.
In general, EC50 refers to the concentration that produces a half-maximal response. In the case of `COC(=O)N[C@@H](C)C(=O)N1[C@@H](C)CC[C@H]1c1nc(-c2ccc(-c3ccc(-c4c[nH]c([C@@H]5CC[C@H](C)N5C(=O)[C@H](C)NC(=O)OC)n4)cc3)cc2)c[nH]1` [Example M157, methyl ((1S)-2-((2S,5S)-2-(4-(4'-(2-((2S,5S)-1-(N-(methoxycarbonyl)-L-alanyl)-5-methyl-2-pyrrolidinyl)-1H-imidazol-4-yl)-4-biphenylyl)-1H-imidazol-2-yl)-5-methyl-1-pyrrolidinyl)-1-methyl-2-oxoethyl)carbamate], the EC50 lay within 0.001 to 0.999 nM.

Consider `CC(C)CC(=O)N1[C@@H](C)CC[C@H]1c1nc(-c2ccc(-c3ccc(-c4c[nH]c([C@@H]5CC[C@H](C)N5C(=O)CC(C)C)n4)cc3)cc2)c[nH]1` [Example M158, 4,4'-(4,4'-biphenyldiyl)bis(2-((2S,5S)-5-methyl-1-(3-methylbutanoyl)-2-pyrrolidinyl)-1H-imidazole)], for which the EC50 is 1 to 99 nM.

Turning to `C[C@H]1CC[C@@H](c2nc(-c3ccc(-c4ccc(-c5c[nH]c([C@@H]6CC[C@H](C)N6C(=O)Cc6ccccc6)n5)cc4)cc3)c[nH]2)N1C(=O)Cc1ccccc1` [Example M159, 4,4'-(4,4'-biphenyldiyl)bis(2-((2S,5S)-5-methyl-1-(phenylacetyl)-2-pyrrolidinyl)-1H-imidazole)], the EC50 was 0.001 to 0.999 nM.

As for `CC(C)[C@@H](O)C(=O)N1[C@@H](C)CC[C@H]1c1nc(-c2ccc(-c3ccc(-c4c[nH]c([C@@H]5CC[C@H](C)N5C(=O)[C@H](O)C(C)C)n4)cc3)cc2)c[nH]1` [Example M160, (2R,2'R)-1,1'-(4,4'-biphenyldiylbis(1H-imidazole-4,2-diyl((2S,5S)-5-methyl-2,1-pyrrolidinediyl)))bis(3-methyl-1-oxo-2-butanol)], the EC50 is 1 to 99 nM.

As for `CC(C)[C@H](O)C(=O)N1[C@@H](C)CC[C@H]1c1nc(-c2ccc(-c3ccc(-c4c[nH]c([C@@H]5CC[C@H](C)N5C(=O)[C@@H](O)C(C)C)n4)cc3)cc2)c[nH]1` [Example M161, (2S,2'S)-1,1'-(4,4'-biphenyldiylbis(1H-imidazole-4,2-diyl((2S,5S)-5-methyl-2,1-pyrrolidinediyl)))bis(3-methyl-1-oxo-2-butanol)], the EC50 lay in the range of 1 to 99 nM.

Turning to `CC(=O)N1[C@@H](C)CC[C@H]1c1nc(-c2ccc(-c3ccc(-c4cnc([C@@H]5CC[C@H](C)N5C(C)=O)[nH]4)cc3)cc2)c[nH]1` [Example M162, 2-((2S,5S)-1-acetyl-5-methyl-2-pyrrolidinyl)-4-(4'-(2-((2S,5S)-1-acetyl-5-methyl-2-pyrrolidinyl)-1H-imidazol-5-yl)-4-biphenylyl)-1H-imidazole], the EC50 lay in the range of 1 to 99 nM.
